Reference: patent publication US6774143B1, “Method for treating cells resistant to antineoplastic agents” (Novartis AG, priority 2003, dated 2004)
Values after ≈ are worked out from the molar mass of the structure shown.

What was measured:
1A9 cells = experiment: In vitro cytotoxicity assay (MTT); format: cell-based; settings: Homo sapiens, 1A9, 1A9 cells; cytotoxic control; experiment not specified; read-out: IC50
Procedure: (§1) 1A9 and 1A9PTX22 cells are plated in 96-well plates at 5×10^4 cells/well, plced in a tissue culture incubator and allowed to attach overnight. The next morning, the number of viable cells in the “time 0” plate (3 wells for each cell line) is determined using an MTT assay (Alley M C, et al., Cancer Res. 1988, 48:589-601).
(§2) At the same time drugs are added in serial, 10-fold dilutions, to the experimental plates. Corresponding vehicles are added to control plates. Experimental and control plates are then incubated in the tissue culture incubator for 72 hours. After the incubation the number of viable cells is determined in each plate using the MTT assay. IC50s (defined as a concentration of a given compound causing 50% inhibition of cell growth) are determined by comparing cell growth in the drug-treated plate (T−T0) to the cell growth in the corresponding control plate (C−T0). For each experiment results are calculated using average numbers from two sets of plates.
(§3) Discodermolide is isolated from the sponge Discodermia dissoluta using the method of Gunasekera SP (supra). Multiple batches of compound of similar purity (all>95% pure, as determined by mass spectrometry, and nuclear magnetic resonance analysis) are used throughout the various studies. For the in vitro cytotoxicity assays all compounds are dissolved in DMSO and are added to the plates with cells to obtain desired concentrations. […] Paclitaxel is purchased from Sigma/Aldrich, (St. Louis, Mo.). For the in vivo hollow fiber assay, solid discodermolide is dissolved in pure ethanol to create a stock solution which is diluted just before dosing with Cremophor EL and D5W to a final concentration of 16.7% Cremophor EL, 8.3% ethanol and 75% D5W. The compound is administered to mice as a single, 15 mg/kg iv injection. Positive control animals receive clinical formulations of paclitaxel (TAXOL) diluted 4-fold with D5W (12.5% Cremophor El, 12.5% ethanol and 75% D5W final concentrations) and administered iv, at 15 mg/kg, once daily for five consecutive days. Vehicle controls are administered according to the corresponding drug schedules.

[1] = test system: 1A9PTX22 cells (β-tubulin mutation); experiment: In vitro cytotoxicity assay (MTT); format: cell-based, human
Procedure: as §1, §2, §3

COc1cccc2c1C(=O)c1c(O)c3c(c(O)c1C2=O)C[C@@](O)(C(=O)CO)C[C@@H]3O[C@H]1C[C@H](N)[C@H](O)[C@H](C)O1 [Doxorubicin]
IC50 (1A9 cells): 3 ng/mL (≈ 5.52 nM) | IC50 ([1]; Homo sapiens, 1A9/ptx-22, 1A9PTX22 cells, cytotoxic control, experiment not specified, read-out: IC50): 3 to 5 ng/mL (≈ 5.52 to 9.2 nM) | fold resistance of 1A9PTX22 versus parental 1A9 ([1]; from IC50s of the two in vitro experiments): 2 fold
